Counter-ions that a name gives are not always drawn.
What was measured:
[1] = single injection; cited from earlier work
[2] = diffusion/release of free (unencapsulated) BP through hemostat matrix, dialysis method; assay type: physicochemical; settings: 1 mg free BP-HCl in 50 or 100 mg Gelfoam or Avitene; 1xPBS pH 7.2, 37° C.; over 24 hours
Procedure: FIG. 5 is a graphical representation of the release of unencapsulated BP from matrix material. 1 mg of free BP—HCl in 0.9 wt/vol % NaCl was combined with either Gelfoam® or Avitene™ (at either 50 mg or 100 mg of matrix) and monitored for release through the matrix over time. The samples were placed in dialysis tubing and submerged in 1×PBS (pH=7.2) at 37° C.
To test the diffusion of free BP (i.e., not encapsulated in microparticles) through the hemostat, the material (i.e., free BP mixed with hemostat) was submerged in physiological media and the released BP measured over time.
In vitro release studies were performed using a dialysis method. […]
UHPLC analysis of released BP was performed on a Waters (Milford, Mass.) ACQUITY UHPLC system equipped with a PDA detector set to 205 nm to quantify BP. […]
The acid form of BP was chromatographically separated on a Waters ACQUITY BEH C18 column (1.7 μm, 2.1×50 mm) by isocratic elution with 70% phosphate buffer/30% ACN at a flow rate of 0.60 mL/min. […] Calibration standards were analyzed and the peaks corresponding to BP were integrated, plotted against the concentration, and the calibration curve was calculated by linear least-squares regression without weighting. […]

Row | release of free BP from the hemostat [2] | SMILES | complete elimination [1] [h] | time to maximum plasma drug concentration [1] [min]
1 | – | CCCCN1CCCCC1C(=O)Nc1c(C)cccc1C (stereo not drawn) [bupivacaine] | 6 to 8 | 30 to 45
2 | majority of free BP was released | CCCCN1CCCCC1C(=O)Nc1c(C)cccc1C (stereo not drawn) [free BP, bupivacaine hydrochloride monohydrate] | – | –

Reference: patent US20180325781A1, “FORMULATIONS FOR CONTROLLED RELEASE OF BUPIVACAINE” (Research Triangle Institute, priority 2017, published 2018)
